From ChEMBL document CHEMBL1121635 (J Med Chem, 1980)

Assays:
[1] = biological target: Muscarinic acetylcholine receptor
Description: Concentration of compound for 50% displacement of [3H]QNB from Muscarinic acetylcholine receptor in rat brain

[2] = biological target: T1, Adrenergic receptor alpha-1 (Rattus norvegicus, UniProt P15823+P23944+P43140)
T1 sequence (P15823 whole entry): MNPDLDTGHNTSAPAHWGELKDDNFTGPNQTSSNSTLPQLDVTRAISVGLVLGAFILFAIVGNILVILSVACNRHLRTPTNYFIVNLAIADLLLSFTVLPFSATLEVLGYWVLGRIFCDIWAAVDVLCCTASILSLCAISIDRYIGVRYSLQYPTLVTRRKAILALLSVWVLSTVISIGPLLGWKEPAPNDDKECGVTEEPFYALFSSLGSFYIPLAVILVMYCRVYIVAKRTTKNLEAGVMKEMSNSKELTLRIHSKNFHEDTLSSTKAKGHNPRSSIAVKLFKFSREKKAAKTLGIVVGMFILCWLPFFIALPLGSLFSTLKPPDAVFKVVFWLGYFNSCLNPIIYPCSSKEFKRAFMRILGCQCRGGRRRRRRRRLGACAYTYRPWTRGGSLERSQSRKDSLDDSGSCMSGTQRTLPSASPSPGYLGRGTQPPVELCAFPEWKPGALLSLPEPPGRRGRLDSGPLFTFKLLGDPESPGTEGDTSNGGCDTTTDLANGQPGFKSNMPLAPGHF
T1 sequence (P23944 whole entry): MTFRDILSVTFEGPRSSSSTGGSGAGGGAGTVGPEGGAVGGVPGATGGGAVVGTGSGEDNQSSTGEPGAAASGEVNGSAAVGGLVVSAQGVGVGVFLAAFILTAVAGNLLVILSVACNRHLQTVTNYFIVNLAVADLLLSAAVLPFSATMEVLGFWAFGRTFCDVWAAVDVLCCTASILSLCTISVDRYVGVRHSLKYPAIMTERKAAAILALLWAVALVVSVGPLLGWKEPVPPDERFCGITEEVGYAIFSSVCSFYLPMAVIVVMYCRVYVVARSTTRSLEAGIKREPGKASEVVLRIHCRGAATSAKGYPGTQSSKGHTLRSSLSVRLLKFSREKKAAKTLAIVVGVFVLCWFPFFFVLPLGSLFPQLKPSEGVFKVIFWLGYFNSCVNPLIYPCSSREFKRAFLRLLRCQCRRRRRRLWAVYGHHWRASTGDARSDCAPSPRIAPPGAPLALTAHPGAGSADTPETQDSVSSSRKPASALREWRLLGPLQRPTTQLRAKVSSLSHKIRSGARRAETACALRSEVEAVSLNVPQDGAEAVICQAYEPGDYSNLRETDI
T1 sequence (P43140 whole entry): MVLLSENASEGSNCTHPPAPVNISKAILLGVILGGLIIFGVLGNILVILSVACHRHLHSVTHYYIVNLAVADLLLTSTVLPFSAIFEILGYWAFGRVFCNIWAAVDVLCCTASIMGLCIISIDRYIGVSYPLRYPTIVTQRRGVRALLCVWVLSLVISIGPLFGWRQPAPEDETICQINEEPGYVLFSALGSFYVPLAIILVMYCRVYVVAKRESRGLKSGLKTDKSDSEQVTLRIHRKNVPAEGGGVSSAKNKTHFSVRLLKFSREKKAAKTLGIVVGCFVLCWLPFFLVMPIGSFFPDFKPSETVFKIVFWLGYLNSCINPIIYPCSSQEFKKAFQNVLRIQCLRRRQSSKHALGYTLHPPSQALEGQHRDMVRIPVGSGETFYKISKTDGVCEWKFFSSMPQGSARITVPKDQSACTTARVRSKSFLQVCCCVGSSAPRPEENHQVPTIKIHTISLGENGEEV
Description: Concentration of compound for 50% displacement of [3H]WB-4101 from Alpha-1 adrenergic receptor of rat brain

[3] = species: Rattus norvegicus
Description: (§1) Concentration of compound to inhibit 50% of [3H]norepinephrine neurotransmitter uptake in rat brain

[4] = species: Rattus norvegicus; test: cells; conditions: Brain, 3 h
Description: (§2) Concentration of compound to inhibit 50% of [3H]-5-HT neurotransmitter uptake in rat brain

[5] = species: Rattus norvegicus; remark: listed apart in the source
Description: as §2

[6] = species: Rattus norvegicus; test: cells; conditions: Brain, 3 h; remark: listed apart in the source
Description: as §1

[7] = biological target: Dopamine receptor; test: Concentration of compound for 50% displacement of [3H]spiperone from Dopamine receptor in rat brain; type: tissue-based

Row | IC50 [1] | IC50 [2] | IC50 [3] | IC50 [4] | IC50 [5] | IC50 [6] | IC50 [7] | SMILES
1 | 2240 nM | 445 nM | 3540 nM | 19600 nM |  |  |  | CN1CCC2c3cccc4c3N(CC2C1)c1ccccc1CC4 (stereo in doubt)
2 | 449 nM | 1760 nM | 1250 nM |  | 14200 nM |  |  | CN1CCC2c3cccc4c3N(CC2C1)c1ccccc1CC4 (trans isomer)
3 | 269 nM |  |  | 384 nM |  | 169 nM | 645 nM | CN(C)CCCN1c2ccccc2CCc2ccccc21 [IMIPRAMINE]
